Assay results taken from patent publication US20170129916A1, “NOVEL BETULINIC PROLINE IMIDAZOLE DERIVATIVES AS HIV INHIBITORS” (HETERO RESEARCH FOUNDATION, priority 2014, published 2017).

Assays:
[1] = test system: HIV-1 strains, for e.g., 92HT599; assay: Antiviral activity: p24 estimation in MT-2 cells infected with HIV-1; assay type: cell-based; conditions: Human immunodeficiency virus 1, MT2, MT-2 cells infected with HIV-1, p24, ~96 hours; for IC50: read-out: Antiviral activity IC50 (nM) Efficacy IC50
In short: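 MT-2 cells infected with HIV-1 (e.g. 92HT599), plated at 30,000 cells/well with compound (DMSO ≤1%) and incubated ~96 h. Supernatant p24 quantified by kit; percent inhibition relative to vehicle controls.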

[2] = Single dose oral pharmacokinetic study; assay type: in vivo; conditions: mouse, mice, 30 mg/kg, plasma; for AUC(0-t): read-out: Mice oral PK @30 mg/kg AUC 0-t; for Cmax: read-out: Mice oral PK @30 mg/kg Cmax
In short: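 Rats or mice received 30 mg/kg orally at 10 ml/kg dose volume. Retro-orbital blood was taken into K3 EDTA at defined intervals under light ether anesthesia and centrifuged to plasma. Plasma levels were measured by LC-MS-MS.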

## CC(C)(CC(=O)O[C@H]1CC[C@]2(C)[C@H]3CC[C@@H]4[C@H]5[C@H](C(C)(O)CO)CC[C@]5(C(=O)N5CCC[C@@H]5c5nc(-c6ccccc6)no5)CC[C@@]4(C)[C@]3(C)CC[C@H]2C1(C)C)C(=O)O (stereo partly drawn) [Compound 42, 4-(((1R,3aS,5aR,5bR,7aR,9S,11aR,11bR,13aR,13bS)-1-(1,2-dihydroxypropan-2-yl)-5a,5b,8,8,11a-pentamethyl-3a-((R)-2-(3-phenyl-1,2,4-oxadiazol-5-yl)pyrrolidine-1-carbonyl)icosahydro-1H-cyclopenta[a]chrysen-9-yl)oxy)-2,2-dimethyl-4-oxobutanoic acid]
[1]
  inhibition at 0.1 µM: 63%
  inhibition at 1 µM: 73%
In vitro
  viability at 4 days, 0.1 nM: 94%
  viability at 4 days, 1 nM: 94%

## C=C(C)[C@@H]1CC[C@]2(C(=O)N3CCC[C@H]3c3ncc(-c4ccc(OCC)cc4)[nH]3)CC[C@]3(C)[C@H](CC[C@@H]4[C@@]5(C)CC[C@H](OC(=O)[C@H]6C[C@@H](C(=O)O)C6(C)C)C(C)(C)[C@@H]5CC[C@]43C)[C@@H]12 [Compound 5, (1R,3S)-3-((((1R,3aS,5aR,5bR,7aR,9S,11aR,11bR,13aR,13bR)-3a-((S)-2-(5-(4-ethoxyphenyl)-1H-imidazol-2-yl)pyrrolidine-1-carbonyl)-5a,5b,8,8,11a-pentamethyl-1-(prop-1-en-2-yl)icosahydro-1H-cyclopenta[a]chrysen-9-yl)oxy)carbonyl)-2,2-dimethylcyclobutane-1-carboxylic acid]
[1]
  inhibition at 0.1 µM: 0%
  inhibition at 1 µM: 100%
In vitro
  viability at 4 days, 10 μM: 100%
  viability at 4 days, 30 μM: 100%
  viability at 4 days, 100 μM: 98%

## C=C(C)[C@@H]1CC[C@]2(C(=O)N3CCC[C@H]3c3ncc(-c4ccc(C)c(F)c4)[nH]3)CC[C@]3(C)[C@H](CC[C@@H]4[C@@]5(C)CC[C@H](OC(=O)CC(C)(C)C(=O)O)C(C)(C)[C@@H]5CC[C@]43C)[C@@H]12 [Compound 40]
[1]
  inhibition at 0.1 µM: 29%
  inhibition at 1 µM: 99%
In vitro
  viability at 4 days, 10 μM: 80%
  viability at 4 days, 30 μM: 48%
  viability at 4 days, 100 μM: 25%

## COCCO[C@@H]1C[C@@H](c2nc(-c3cccc(F)c3)c[nH]2)N(C(=O)[C@]23CC[C@@H](C4(C)CC4)[C@@H]2[C@H]2CC[C@@H]4[C@@]5(C)CC[C@H](OC(=O)[C@H]6C[C@@H](C(=O)O)C6(C)C)C(C)(C)[C@@H]5CC[C@@]4(C)[C@]2(C)CC3)C1 [Compound 54, (1R,3S)-3-((((1R,3aS,5aR,5bR,7aR,9S,11aR,11bR,13aR,13bR)-3a-((2S,4R)-2-(4-(3-fluorophenyl)-1H-imidazol-2-yl)-4-(2-methoxyethoxy)pyrrolidine-1-carbonyl)-5a,5b,8,8,11a-pentamethyl-1-(1-methylcyclopropyl)icosahydro-1H-cyclopenta[a]chrysen-9-yl)oxy)carbonyl)-2,2-dimethylcyclobutane-1-carboxylic acid]
[1]
  inhibition at 0.1 µM: 13%
  inhibition at 1 µM: 93%
In vitro
  viability at 4 days, 10 μM: 49%
  viability at 4 days, 30 μM: 16%
  viability at 4 days, 100 μM: 6%

## C=C(C)[C@@H]1CC[C@]2(C(=O)N3CCC[C@H]3c3nc(-c4ccc(OC)c(F)c4)c[nH]3)CC[C@]3(C)[C@H](CC[C@@H]4[C@@]5(C)CC[C@H](OC(=O)[C@H]6C[C@@H](C(=O)O)C6(C)C)C(C)(C)[C@@H]5CC[C@]43C)[C@@H]12 [Compound 25, (1R,3S)-3-((((1R,3aS,5aR,5bR,7aR,9S,11aR,11bR,13aR,13bR)-3a-((S)-2-(4-(3-fluoro-4-methoxyphenyl)-1H-imidazol-2-yl)pyrrolidine-1-carbonyl)-5a,5b,8,8,11a-pentamethyl-1-(prop-1-en-2-yl)icosahydro-1H-cyclopenta[a]chrysen-9-yl)oxy)carbonyl)-2,2-dimethylcyclobutane-1-carboxylic acid]
[1]
  inhibition at 0.1 µM: 89%
  inhibition at 1 µM: 99%
In vitro
  viability at 4 days, 10 μM: 65%
  viability at 4 days, 30 μM: 32%
  viability at 4 days, 100 μM: 11%

## CC(C)(CC(=O)O[C@H]1CC[C@]2(C)[C@H]3CC[C@@H]4[C@H]5[C@H](C6(C)CC6)CC[C@]5(C(=O)N5CCC(c6ncc(-c7ccccc7)[nH]6)CC5)CC[C@@]4(C)[C@]3(C)CC[C@H]2C1(C)C)C(=O)O [Compound 68, 2,2-dimethyl-4-oxo-4-(((1R,3aS,5aR,5bR,7aR,9S,11aR,11bR,13aR,13bR)-5a,5b,8,8,11a-pentamethyl-1-(1-methylcyclopropyl)-3a-(4-(5-phenyl-1H-imidazol-2-yl)piperidine-1-carbonyl)icosahydro-1H-cyclopenta[a]chrysen-9-yl)oxy)butanoic acid]
[1]
  IC50: 12.8 nM
[2]
  AUC(0-t): 23.5 µg·h/mL
  Cmax: 2020 ng/mL

## C=C(C)[C@@H]1CC[C@]2(C(=O)N3CCC[C@H]3c3ncc(-c4ccc(C)c(F)c4)[nH]3)CC[C@]3(C)[C@H](CC[C@@H]4[C@@]5(C)CC[C@H](OC(=O)[C@H]6C[C@@H](C(=O)O)C6(C)C)C(C)(C)[C@@H]5CC[C@]43C)[C@@H]12 [Compound 2, (1R,3S)-3-((((1R,3aS,5aR,5 bR,7aR,9S,11aR,11bR,13aR,13bR)-3a-((S)-2-(5-(3-fluoro-4-methylphenyl)-1H-imidazol-2-yl)pyrrolidine-1-carbonyl)-5a,5b,8,8,11a-pentamethyl-1-(prop-1-en-2-yl)icosahydro-1H-cyclopenta[a]chrysen-9-yl)oxy)carbonyl)-2,2-dimethylcyclobutane-1-carboxylic acid]
[1]
  inhibition at 0.1 µM: 0%
  inhibition at 1 µM: 97%
In vitro
  viability at 4 days, 10 μM: 64%
  viability at 4 days, 30 μM: 31%
  viability at 4 days, 100 μM: 5%

## C=C(C)[C@@H]1CC[C@]2(C(=O)N3CCC[C@H]3c3nc(C(C)(C)C)c[nH]3)CC[C@]3(C)[C@H](CC[C@@H]4[C@@]5(C)CC[C@H](OC(=O)[C@H]6C[C@@H](C(=O)O)C6(C)C)C(C)(C)[C@@H]5CC[C@]43C)[C@@H]12 [Compound 18, (1R,3S)-3-((((1R,3aS,5aR,5bR,7aR,9S,11aR,11bR,13aR,13bR)-3a-((S)-2-(4-(tert-butyl)-1H-imidazol-2-yl)pyrrolidine-1-carbonyl)-5a,5b,8,8,11a-pentamethyl-1-(prop-1-en-2-yl)icosahydro-1H-cyclopenta[a]chrysen-9-yl)oxy)carbonyl)-2,2-dimethylcyclobutane-1-carboxylic acid]
[1]
  IC50: 35.8 nM
[2]
  AUC(0-t): 409 µg·h/mL
  Cmax: 16400 ng/mL
